Results: patent US11358949B2, “Carbamate and urea compounds as multikinase inhibitors” (ANGEX PHARMACEUTICAL, INC., priority 2017, dated 2022)

Assays:
AXL = target: T1, AXL (Homo sapiens, UniProt P30530); assay: HotSpot Kinase Assay, AXL
T1 sequence (P30530 26-894): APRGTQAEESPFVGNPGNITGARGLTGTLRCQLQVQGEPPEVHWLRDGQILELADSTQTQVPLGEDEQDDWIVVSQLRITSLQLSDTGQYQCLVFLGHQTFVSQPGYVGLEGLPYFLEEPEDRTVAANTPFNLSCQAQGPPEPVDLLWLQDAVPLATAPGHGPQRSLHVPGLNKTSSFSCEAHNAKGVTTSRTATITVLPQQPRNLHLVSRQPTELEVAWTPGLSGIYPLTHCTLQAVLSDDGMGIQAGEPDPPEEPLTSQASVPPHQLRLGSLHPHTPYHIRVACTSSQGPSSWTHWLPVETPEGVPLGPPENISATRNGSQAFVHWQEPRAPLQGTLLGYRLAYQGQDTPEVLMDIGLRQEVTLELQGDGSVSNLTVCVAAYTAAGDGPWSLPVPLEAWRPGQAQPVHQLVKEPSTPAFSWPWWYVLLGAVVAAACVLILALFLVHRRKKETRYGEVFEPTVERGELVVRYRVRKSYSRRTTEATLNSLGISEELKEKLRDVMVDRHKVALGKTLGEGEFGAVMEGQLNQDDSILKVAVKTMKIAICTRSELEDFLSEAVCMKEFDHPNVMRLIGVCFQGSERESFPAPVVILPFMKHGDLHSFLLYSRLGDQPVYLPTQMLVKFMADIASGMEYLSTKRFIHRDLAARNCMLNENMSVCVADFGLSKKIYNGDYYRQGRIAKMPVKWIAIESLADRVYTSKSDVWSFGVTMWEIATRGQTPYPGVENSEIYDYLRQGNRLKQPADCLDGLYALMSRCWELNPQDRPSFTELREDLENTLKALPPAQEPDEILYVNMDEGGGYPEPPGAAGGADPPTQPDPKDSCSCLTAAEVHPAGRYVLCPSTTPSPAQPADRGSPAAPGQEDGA
Experimental: (§1) Specifically, for each reaction, kinase and substrate were mixed in a pH 7.5 buffer containing 20 mM HEPES, 10 mM MgCl2, 1 mM EGTA [Ethylene glycol-bis(2-aminoethylether)-N,N,N′,N′-tetraacetic acid], 0.02% Brij35, 0.02 mg/mL BSA (Bovine Serum Albumin), 0.1 mM Na3VO4, 2 mM DTT, and 1% DMSO. Compounds were then added to each reaction mixture. After a 20-min incubation, ATP (Sigma-Aldrich) and [γ-^33P] ATP (PerkinElmer) were added at a final total concentration of 100 μM. Reactions were carried out at room temperature for 2 hours and spotted onto P81 ion exchange cellulose chromatography paper (Whatman). […] The percent remaining kinase activity relative to a vehicle-containing (DMSO) kinase reaction was calculated for each kinase/inhibitor pair. […] IC50 values were calculated using Prism 5 (GraphPad).

FMS = FMS (Homo sapiens, UniProt P07333); assay: HotSpot Kinase Assay, FMS
Experimental: as §1

DDR1 = DDR1 (Homo sapiens, UniProt Q08345); assay: HotSpot Kinase Assay, DDR1
Experimental: as §1

c-Kit = c-Kit (Homo sapiens, UniProt P10721); assay: HotSpot Kinase Assay, c-Kit
Experimental: as §1

c-MER = target: T2, c-MER (Homo sapiens, UniProt Q12866); assay: HotSpot Kinase Assay, c-MER
T2 sequence (Q12866 21-999): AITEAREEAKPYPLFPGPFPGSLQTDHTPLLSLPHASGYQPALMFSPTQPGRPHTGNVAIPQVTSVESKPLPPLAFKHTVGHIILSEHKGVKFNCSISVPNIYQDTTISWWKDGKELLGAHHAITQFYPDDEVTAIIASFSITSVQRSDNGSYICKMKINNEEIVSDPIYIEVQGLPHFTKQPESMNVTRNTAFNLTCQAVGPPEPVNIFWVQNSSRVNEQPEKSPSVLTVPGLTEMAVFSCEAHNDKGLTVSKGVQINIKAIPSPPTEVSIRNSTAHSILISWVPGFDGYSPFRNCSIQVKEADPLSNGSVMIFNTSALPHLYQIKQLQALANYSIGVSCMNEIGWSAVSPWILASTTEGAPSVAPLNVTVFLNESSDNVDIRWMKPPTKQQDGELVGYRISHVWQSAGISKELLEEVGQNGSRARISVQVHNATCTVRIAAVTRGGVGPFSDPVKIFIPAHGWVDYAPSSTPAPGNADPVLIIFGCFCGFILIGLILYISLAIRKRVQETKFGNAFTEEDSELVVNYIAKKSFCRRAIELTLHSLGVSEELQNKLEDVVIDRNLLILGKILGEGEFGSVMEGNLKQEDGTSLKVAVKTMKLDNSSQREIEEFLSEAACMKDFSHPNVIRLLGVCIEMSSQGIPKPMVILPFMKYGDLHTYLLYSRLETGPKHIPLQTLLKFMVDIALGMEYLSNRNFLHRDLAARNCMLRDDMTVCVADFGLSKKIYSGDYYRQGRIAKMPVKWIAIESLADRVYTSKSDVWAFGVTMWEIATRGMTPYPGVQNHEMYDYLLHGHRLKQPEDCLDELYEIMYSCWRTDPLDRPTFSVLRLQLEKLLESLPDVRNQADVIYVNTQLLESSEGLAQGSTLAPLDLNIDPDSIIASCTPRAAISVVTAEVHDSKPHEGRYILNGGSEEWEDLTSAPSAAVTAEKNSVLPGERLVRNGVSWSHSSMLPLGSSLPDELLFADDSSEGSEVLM
Experimental: as §1

c-MET = c-MET (Homo sapiens, UniProt P08581); assay: HotSpot Kinase Assay, c-MET
Experimental: as §1

EPHA2 = EPHA2 (Homo sapiens, UniProt P29317); assay: HotSpot Kinase Assay, EPHA2
LOK/STK10 = LOK/STK10 (Homo sapiens, UniProt O94804); assay: HotSpot Kinase Assay, LOK/STK10
TYRO3/SKY = target: T3, TYRO3/SKY (Homo sapiens, UniProt Q06418); assay: HotSpot Kinase Assay, TYRO3/SKY
T3 sequence (Q06418 41-890): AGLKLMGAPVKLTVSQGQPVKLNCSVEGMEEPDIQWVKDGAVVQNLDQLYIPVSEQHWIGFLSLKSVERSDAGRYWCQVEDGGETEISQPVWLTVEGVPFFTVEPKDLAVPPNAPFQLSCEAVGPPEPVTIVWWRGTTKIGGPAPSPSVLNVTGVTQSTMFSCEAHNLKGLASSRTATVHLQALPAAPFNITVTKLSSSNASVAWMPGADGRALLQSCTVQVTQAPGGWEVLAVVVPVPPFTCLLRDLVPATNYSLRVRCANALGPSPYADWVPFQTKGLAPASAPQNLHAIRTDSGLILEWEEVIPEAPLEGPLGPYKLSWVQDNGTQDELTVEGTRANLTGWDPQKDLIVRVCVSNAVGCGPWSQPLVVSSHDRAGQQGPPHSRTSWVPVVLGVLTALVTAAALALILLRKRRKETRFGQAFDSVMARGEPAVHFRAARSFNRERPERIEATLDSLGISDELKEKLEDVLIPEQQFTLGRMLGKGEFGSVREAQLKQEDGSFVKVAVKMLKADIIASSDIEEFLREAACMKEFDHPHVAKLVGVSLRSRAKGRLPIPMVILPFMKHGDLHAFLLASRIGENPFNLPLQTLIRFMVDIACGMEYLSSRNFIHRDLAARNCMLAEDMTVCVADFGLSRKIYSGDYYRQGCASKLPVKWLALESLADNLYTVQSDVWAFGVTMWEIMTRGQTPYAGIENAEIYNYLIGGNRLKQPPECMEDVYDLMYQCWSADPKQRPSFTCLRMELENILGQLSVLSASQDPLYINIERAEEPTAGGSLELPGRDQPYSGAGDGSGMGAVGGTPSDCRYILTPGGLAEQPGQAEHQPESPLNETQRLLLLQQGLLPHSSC
Experimental: as §1

KDR/VEGFR2 = KDR/VEGFR2 (Homo sapiens, UniProt P35968); assay: HotSpot Kinase Assay, KDR/VEGFR2
Sequence of KDR/VEGFR2 (P35968 20-1356): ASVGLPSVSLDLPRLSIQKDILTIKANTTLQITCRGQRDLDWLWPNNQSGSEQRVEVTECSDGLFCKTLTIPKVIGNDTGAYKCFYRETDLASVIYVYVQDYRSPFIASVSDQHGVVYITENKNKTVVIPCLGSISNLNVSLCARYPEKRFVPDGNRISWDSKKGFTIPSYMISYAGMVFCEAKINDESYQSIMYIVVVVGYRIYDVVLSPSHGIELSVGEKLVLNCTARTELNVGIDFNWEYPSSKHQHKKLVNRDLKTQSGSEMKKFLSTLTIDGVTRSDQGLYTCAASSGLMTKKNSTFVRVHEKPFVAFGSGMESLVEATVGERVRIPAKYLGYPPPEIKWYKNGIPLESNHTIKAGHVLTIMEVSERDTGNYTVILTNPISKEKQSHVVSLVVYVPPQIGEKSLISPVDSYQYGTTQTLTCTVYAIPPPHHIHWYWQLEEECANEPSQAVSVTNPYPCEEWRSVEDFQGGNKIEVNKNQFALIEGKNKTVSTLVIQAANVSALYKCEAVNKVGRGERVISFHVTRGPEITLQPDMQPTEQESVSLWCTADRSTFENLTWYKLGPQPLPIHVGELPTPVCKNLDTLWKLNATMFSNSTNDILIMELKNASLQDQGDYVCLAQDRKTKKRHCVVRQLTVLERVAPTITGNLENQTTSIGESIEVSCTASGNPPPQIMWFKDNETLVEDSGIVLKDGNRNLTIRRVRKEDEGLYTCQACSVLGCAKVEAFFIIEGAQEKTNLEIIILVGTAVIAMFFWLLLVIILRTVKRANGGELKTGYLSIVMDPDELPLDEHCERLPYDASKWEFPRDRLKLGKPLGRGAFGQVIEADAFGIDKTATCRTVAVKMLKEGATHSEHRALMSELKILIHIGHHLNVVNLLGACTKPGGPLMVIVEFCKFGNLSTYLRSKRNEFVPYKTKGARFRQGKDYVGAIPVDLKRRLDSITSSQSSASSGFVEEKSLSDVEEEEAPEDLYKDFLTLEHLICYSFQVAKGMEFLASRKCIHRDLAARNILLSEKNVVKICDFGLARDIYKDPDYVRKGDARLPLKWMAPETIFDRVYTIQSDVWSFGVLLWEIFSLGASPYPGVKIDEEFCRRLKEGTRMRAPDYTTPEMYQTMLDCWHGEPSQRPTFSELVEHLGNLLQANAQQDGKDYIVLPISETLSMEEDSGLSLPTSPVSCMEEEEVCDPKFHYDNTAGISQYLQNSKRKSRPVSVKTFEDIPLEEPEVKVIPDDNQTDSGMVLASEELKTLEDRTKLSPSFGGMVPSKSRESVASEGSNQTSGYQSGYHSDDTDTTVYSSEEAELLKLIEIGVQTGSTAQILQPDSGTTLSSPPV
Experimental: as §1

Sequence of c-Kit (P10721 26-976): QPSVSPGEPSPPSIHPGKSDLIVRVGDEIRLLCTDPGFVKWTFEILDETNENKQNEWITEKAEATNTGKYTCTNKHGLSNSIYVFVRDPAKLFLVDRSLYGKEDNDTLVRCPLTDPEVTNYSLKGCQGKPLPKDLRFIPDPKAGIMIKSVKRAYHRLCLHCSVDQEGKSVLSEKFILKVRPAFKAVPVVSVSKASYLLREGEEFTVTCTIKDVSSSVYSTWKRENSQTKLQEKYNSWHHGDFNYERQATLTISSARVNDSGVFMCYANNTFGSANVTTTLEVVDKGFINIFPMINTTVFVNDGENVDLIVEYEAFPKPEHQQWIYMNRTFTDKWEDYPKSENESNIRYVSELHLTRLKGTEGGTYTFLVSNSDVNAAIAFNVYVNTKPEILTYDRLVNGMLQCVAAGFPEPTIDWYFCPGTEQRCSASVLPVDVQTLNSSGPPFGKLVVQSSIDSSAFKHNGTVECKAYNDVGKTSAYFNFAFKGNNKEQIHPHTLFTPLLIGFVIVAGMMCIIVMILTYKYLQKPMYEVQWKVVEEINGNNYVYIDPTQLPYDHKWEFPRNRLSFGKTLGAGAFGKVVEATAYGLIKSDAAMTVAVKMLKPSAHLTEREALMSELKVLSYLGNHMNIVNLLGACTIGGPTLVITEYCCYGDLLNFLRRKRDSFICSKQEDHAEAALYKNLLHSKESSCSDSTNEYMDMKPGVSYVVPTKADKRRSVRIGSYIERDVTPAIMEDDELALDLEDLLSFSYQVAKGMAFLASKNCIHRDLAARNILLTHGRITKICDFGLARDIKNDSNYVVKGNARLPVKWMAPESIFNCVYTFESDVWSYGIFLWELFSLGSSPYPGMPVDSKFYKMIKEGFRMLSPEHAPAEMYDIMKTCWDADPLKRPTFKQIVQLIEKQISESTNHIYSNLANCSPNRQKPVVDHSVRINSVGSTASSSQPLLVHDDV
Sequence of LOK/STK10 (O94804 whole entry): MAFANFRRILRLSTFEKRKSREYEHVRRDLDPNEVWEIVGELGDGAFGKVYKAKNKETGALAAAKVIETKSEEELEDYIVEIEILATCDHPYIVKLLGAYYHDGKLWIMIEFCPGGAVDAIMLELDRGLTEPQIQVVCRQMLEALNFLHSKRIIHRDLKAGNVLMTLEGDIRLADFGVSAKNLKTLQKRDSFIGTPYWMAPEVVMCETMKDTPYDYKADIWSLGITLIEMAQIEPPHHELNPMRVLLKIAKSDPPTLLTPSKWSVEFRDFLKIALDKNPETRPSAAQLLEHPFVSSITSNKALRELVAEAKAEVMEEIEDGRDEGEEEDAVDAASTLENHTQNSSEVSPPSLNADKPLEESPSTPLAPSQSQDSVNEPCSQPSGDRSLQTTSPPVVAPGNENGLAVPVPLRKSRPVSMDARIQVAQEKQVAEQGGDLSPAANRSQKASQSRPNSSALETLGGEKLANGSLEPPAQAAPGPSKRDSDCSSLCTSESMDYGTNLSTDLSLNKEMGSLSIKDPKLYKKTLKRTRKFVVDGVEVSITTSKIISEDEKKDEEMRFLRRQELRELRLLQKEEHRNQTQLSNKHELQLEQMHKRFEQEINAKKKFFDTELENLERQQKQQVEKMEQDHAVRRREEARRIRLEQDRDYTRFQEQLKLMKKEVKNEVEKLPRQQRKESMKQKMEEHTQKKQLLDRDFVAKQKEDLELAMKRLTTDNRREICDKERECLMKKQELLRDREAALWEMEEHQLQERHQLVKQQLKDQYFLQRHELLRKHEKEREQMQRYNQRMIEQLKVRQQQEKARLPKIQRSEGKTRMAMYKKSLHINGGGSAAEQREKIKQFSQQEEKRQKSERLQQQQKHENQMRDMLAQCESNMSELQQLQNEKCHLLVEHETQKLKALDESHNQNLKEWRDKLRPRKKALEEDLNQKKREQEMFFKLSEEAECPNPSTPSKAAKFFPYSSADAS
Sequence of DDR1 (Q08345 19-913): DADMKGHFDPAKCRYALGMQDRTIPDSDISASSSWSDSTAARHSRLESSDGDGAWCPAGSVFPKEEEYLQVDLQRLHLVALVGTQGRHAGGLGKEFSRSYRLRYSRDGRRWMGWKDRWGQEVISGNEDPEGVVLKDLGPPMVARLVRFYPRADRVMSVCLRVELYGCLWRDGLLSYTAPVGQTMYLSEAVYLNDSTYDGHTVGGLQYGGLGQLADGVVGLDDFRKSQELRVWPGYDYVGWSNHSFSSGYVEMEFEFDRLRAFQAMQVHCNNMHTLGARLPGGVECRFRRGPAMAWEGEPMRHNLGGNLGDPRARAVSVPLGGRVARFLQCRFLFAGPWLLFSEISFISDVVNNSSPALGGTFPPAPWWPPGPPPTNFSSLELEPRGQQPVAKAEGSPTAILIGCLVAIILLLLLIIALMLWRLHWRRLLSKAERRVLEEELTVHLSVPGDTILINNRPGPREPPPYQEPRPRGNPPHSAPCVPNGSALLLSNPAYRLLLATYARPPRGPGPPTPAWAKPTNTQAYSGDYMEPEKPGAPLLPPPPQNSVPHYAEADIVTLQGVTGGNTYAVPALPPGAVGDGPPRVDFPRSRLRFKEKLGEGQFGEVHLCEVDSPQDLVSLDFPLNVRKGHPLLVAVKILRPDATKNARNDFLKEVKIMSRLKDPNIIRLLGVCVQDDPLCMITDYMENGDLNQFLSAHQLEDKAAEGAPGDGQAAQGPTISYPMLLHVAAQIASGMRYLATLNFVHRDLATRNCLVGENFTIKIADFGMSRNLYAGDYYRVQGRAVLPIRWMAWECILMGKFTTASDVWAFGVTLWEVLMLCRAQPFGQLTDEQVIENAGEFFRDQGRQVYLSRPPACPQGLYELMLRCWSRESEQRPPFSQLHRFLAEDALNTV
Sequence of FMS (P07333 20-972): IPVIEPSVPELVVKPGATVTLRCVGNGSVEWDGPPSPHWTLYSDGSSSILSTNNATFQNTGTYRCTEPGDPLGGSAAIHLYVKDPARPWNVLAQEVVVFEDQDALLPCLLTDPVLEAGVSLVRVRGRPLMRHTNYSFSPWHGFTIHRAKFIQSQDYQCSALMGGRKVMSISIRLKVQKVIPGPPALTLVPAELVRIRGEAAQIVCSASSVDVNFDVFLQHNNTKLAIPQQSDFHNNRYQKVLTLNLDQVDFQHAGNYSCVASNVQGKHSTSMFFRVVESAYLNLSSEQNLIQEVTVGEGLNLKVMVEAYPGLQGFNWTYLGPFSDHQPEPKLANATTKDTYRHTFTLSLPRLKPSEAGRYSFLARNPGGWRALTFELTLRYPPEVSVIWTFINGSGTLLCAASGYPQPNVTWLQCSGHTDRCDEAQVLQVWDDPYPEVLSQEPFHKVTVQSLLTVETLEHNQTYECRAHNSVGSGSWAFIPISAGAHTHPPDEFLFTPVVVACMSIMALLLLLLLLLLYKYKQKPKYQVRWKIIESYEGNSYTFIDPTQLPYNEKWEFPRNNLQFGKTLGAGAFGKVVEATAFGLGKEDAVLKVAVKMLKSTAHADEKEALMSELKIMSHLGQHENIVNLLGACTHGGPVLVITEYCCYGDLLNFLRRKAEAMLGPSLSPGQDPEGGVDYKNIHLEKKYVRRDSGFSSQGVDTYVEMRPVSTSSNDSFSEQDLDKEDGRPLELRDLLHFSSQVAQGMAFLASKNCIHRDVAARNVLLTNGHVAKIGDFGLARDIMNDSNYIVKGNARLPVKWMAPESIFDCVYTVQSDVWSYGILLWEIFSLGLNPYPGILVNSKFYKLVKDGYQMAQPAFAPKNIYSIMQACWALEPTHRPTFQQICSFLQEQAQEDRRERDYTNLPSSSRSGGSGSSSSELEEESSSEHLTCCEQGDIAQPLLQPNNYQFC

| Compound | IC50 (AXL) | IC50 (FMS) | IC50 (DDR1) | IC50 (c-Kit) | IC50 (c-MER) | IC50 (c-MET) | IC50 (EPHA2) | IC50 (LOK/STK10) | IC50 (TYRO3/SKY) | IC50 (KDR/VEGFR2) |
| --- | --- | --- | --- | --- | --- | --- | --- | --- | --- | --- |
| COc1cc2c(Oc3ccc(NC(=O)C4(C(=O)Nc5ccc(F)cc5)CC4)cc3)ccnc2cc1OC(=O)N1CCN(C)[C@@H](C)C1 [Compound 2-3] | < 100 nM | < 100 nM | < 100 nM | < 100 nM | < 100 nM | < 100 nM | 100 to 1000 nM | 100 to 1000 nM | 100 to 1000 nM | 100 to 1000 nM |
| COc1cc2c(Oc3ccc(NC(=O)C4(C(=O)Nc5ccc(F)cc5)CC4)cc3)ccnc2cc1OC(=O)N1CCC(F)(F)CC1 [Compound 1-13] | 100 to 1000 nM | > 1000 nM | < 100 nM | 100 to 1000 nM | 100 to 1000 nM | < 100 nM | > 1000 nM | > 1000 nM | > 1000 nM | > 1000 nM |
| COc1cc2c(Oc3ccc(NC(=O)C4(C(=O)Nc5ccc(F)cc5)CC4)cc3)ncnc2cc1OC(=O)N1CCN(C)C[C@H]1C [Compound 8-6, 4-(4-(1-((4-fluorophenyl)carbamoyl)cyclopropane-1-carboxamido)phenoxy)-6-methoxyquinazolin-7-yl (R)-2,4-methylpiperazine-1-carboxylate] | 100 to 1000 nM | 100 to 1000 nM | < 100 nM | 100 to 1000 nM | 100 to 1000 nM | 100 to 1000 nM | > 1000 nM | > 1000 nM | 100 to 1000 nM | > 1000 nM |
| COc1cc2c(Oc3ccc(NC(=O)C4(C(=O)Nc5ccc(F)cc5)CC4)cc3)ccnc2cc1OC(=O)N1CCN(C)CC1(C)C [Compound 6-6] | < 100 nM | 100 to 1000 nM | < 100 nM | < 100 nM | < 100 nM | 100 to 1000 nM | 100 to 1000 nM | 100 to 1000 nM | 100 to 1000 nM | 100 to 1000 nM |
| COc1cc2c(Oc3ccc(NC(=O)C4(C(=O)Nc5ccc(F)cc5)CC4)cc3)ccnc2cc1OC(=O)N1CC[C@H](O)C1 [Compound 2-5] | < 100 nM | 100 to 1000 nM | < 100 nM | < 100 nM | < 100 nM | < 100 nM | 100 to 1000 nM | 100 to 1000 nM | > 1000 nM | > 1000 nM |
| COc1cc2c(Oc3ccc(NC(=O)C4(C(=O)Nc5ccc(F)cc5)CC4)cc3)ccnc2cc1OC(=O)N1CC[C@@H](O)C1 [Compound 2-4] | < 100 nM | 100 to 1000 nM | < 100 nM | < 100 nM | < 100 nM | < 100 nM | 100 to 1000 nM | 100 to 1000 nM | > 1000 nM | > 1000 nM |
| COc1cc2c(Oc3ccc(NC(=O)C4(C(=O)Nc5ccc(F)cc5)CC4)cc3)ccnc2cc1OC(=O)N1CCNCC1(C)C [Compound 6-5] | < 100 nM | 100 to 1000 nM | < 100 nM | < 100 nM | < 100 nM | < 100 nM | 100 to 1000 nM | 100 to 1000 nM | 100 to 1000 nM | > 1000 nM |
| COc1cc2nccc(Oc3ccc(NC(=O)C4(C(=O)Nc5ccc(F)cc5)CC4)cc3)c2cc1OC(=O)N1CCNC[C@H]1C [Compound 7-2] | < 100 nM | < 100 nM | < 100 nM | < 100 nM | < 100 nM | < 100 nM | < 100 nM | < 100 nM | < 100 nM | < 100 nM |
| COc1cc2nccc(Oc3ccc(NC(=O)C4(C(=O)Nc5ccc(F)cc5)CC4)cc3)c2cc1OC(=O)N1[C@H](C)CN(C)C[C@@H]1C [Compound 7-5] | < 100 nM | < 100 nM | < 100 nM | < 100 nM | < 100 nM | < 100 nM | 100 to 1000 nM | 100 to 1000 nM | < 100 nM | < 100 nM |
| COc1cc2nccc(Oc3ccc(NC(=O)C4(C(=O)Nc5ccc(F)cc5)CC4)cc3)c2cc1OC(=O)N1[C@H](C)CNC[C@@H]1C [Compound 7-4] | < 100 nM | < 100 nM | < 100 nM | < 100 nM | < 100 nM | < 100 nM | 100 to 1000 nM | 100 to 1000 nM | < 100 nM | < 100 nM |
| COc1cc2nccc(Oc3ccc(NC(=O)C4(C(=O)Nc5ccc(F)cc5)CC4)cc3)c2cc1OC(=O)N1CCN(C)CC1(C)C [Compound 7-7] | < 100 nM | 100 to 1000 nM | < 100 nM | < 100 nM | < 100 nM | < 100 nM | 100 to 1000 nM | > 1000 nM | 100 to 1000 nM | 100 to 1000 nM |
| COc1cc2c(Oc3ccc(NC(=O)C4(C(=O)Nc5ccc(F)cc5)CC4)cc3F)ccnc2cc1OC(=O)N1CCN(C)C[C@H]1C [Compound 3-5, 4-(2-fluoro-4-(1-((4-fluorophenyl)carbamoyl)cyclopropane-1-carboxamido)phenoxy)-6-methoxyquinolin-7-yl (R)-2,4-dimethylpiperazine-1-carboxylate] | < 100 nM | 100 to 1000 nM | < 100 nM | < 100 nM | < 100 nM | < 100 nM | < 100 nM | 100 to 1000 nM | 100 to 1000 nM | < 100 nM |
